# Like-named read-outs stand apart in the source and are kept apart here.
# Key:
# [1] = molecular target: T1, recombinant HIV-1 p66/51 reverse transcriptase (Human immunodeficiency virus type 1 group M subtype B, UniProt P04585); assay: Inhibition of p66/51 reverse transcriptase; assay type: biochemical
# T1 construct: recombinant HIV-1 p66/51 reverse transcriptase
# [2] = system: Vero cells; settings: cited from earlier work
# [3] = system: HIV-1 (wild type); settings: FDA-approved drugs; cited from earlier work
# [4] = system: M184V (3TC resistant); settings: cited from earlier work
# [5] = system: H9 cells; settings: cited from earlier work
# [6] = system: CEM (human lymphoblastoid) cells; settings: cited from earlier work
# [7] = molecular target: RT (Human immunodeficiency virus type 1 group M subtype B, UniProt P04585); settings: FDA-approved drugs; cited from earlier work
# [8] = molecular target: T2, Protease (Human immunodeficiency virus type 1 group M subtype B, UniProt P04585); settings: FDA-approved drugs; cited from earlier work
# T2 construct: Protease
# [9] = in vivo; cited from earlier work
# [10] = cited from earlier work
# [11] = molecular target: Anti-C60; settings: measured inhibition of bovine thyroglobulin-fullerene conjugate binding by test compound; cited from earlier work
# [12] = M184V, common RT mutant, FDA-approved drugs, read-out: EC50
compound,measurement,setting,value
Cc1cn([C@H]2C[C@H](N=[N+]=[N-])[C@@H](CO[P@](=O)(O)O[P@](=O)(O)OP(=O)(O)O)O2)c(=O)[nH]c1=O [AZTTP],inhibition at 0.001 µM,[1]; 0.001 μM,8%
same,inhibition at 0.01 µM,[1]; 0.01 μM,35.7%
same,inhibition at 0.1 µM,[1]; 0.1 μM,72.7%
same,inhibition at 1 µM,[1]; 1 μM,97%
same,inhibition at 10 µM,[1]; 10 μM,99.6%
same,1C 90,"[1]; p66/51 1 unit/rxn, (rA)n.(dT)12-18",0.27 µM
same,IC50,"[1]; p66/51 1 unit/rxn, (rA)n.(dT)12-18, read-out: 1C 50",21 nM
Cc1cn([C@H]2C[C@H](N=[N+]=[N-])[C@@H](CO)O2)c(=O)[nH]c1=O [AZT],cytotoxicity (in words),[2],cytotoxic
same,EC50,[3],50 nM
same,EC50,[4]; [12],10 nM
same,cytotoxicity (in words),[5],cytotoxic
same,cytotoxicity (in words),[6],cytotoxic
same,RT Inhibitor,[7],yes
same,IC50,"[1]; poly (rA)n oligo (dT)12 template primer, text b87, unit inferred, read-out: IC50 against RT",21 nM
CC(C)CN(C[C@@H](O)[C@H](Cc1ccccc1)NC(=O)O[C@H]1CCOC1)S(=O)(=O)c1ccc(N)cc1 [Amprenavir],Protease Inhibitor,[8],yes
same,EC50,[3],54 nM
same,EC50,[4]; [12],500 nM
"Nc1ccn([C@@H]2CS[C@H](CO)O2)c(=O)n1 [Compound 3TC, 3TC]",EC50,[3],180 nM
same,EC50,[4]; [12],> 100000 nM
same,EC50,"[4]; text b84, unit inferred, read-out: activity against M184V",> 100000 nM
CC(C)(C)NC(=O)[C@@H]1CN(Cc2cccnc2)CCN1C[C@@H](O)C[C@@H](Cc1ccccc1)C(=O)N[C@H]1c2ccccc2C[C@H]1O [Indinavir],Protease Inhibitor,[8],yes
same,EC50,[3],~100 nM
Cc1c(O)cccc1C(=O)N[C@@H](CSc1ccccc1)[C@H](O)CN1C[C@H]2CCCC[C@H]2C[C@H]1C(=O)NC(C)(C)C [Nelfinavir],Oral Bioavailability,[9],52%
same,Protease Inhibitor,[8],yes
same,EC50,[4]; [12],400 nM
CC(C)c1nc(CN(C)C(=O)N[C@H](C(=O)N[C@@H](Cc2ccccc2)C[C@H](O)[C@H](Cc2ccccc2)NC(=O)OCc2cncs2)C(C)C)cs1 [Ritonavir],Oral Bioavailability,[9],˜78%
same,Protease Inhibitor,[8],yes
same,EC50,[3],45 nM
same,EC50,[4]; [12],800 nM
CC(C)(C)NC(=O)[C@@H]1C[C@@H]2CCCC[C@@H]2CN1C[C@@H](O)[C@H](Cc1ccccc1)NC(=O)[C@H](CC(N)=O)NC(=O)c1ccc2ccccc2n1 [Saquinavir],Oral Bioavailability,[9],˜4%
same,Protease Inhibitor,[8],yes
"c12c3c4c5c1c1c6c7c2c2c8c3c3c9c4c4c%10c5c5c1c1c6c6c%11c7c2c2c7c8c3c3c8c9c4c4c9c%10c5c5c1c1c6c6c%11c2c2c7c3c3c8c4c4c9c5c1c1c6c2c3c41 [unmodified C60, C60]",toxicity in vivo (in words),[10],non toxic even at high doses
C3-carboxyfullerene,Kd,[11],250 µg/mL
D3-carboxyfullerene,Kd,[11],38 µg/mL
fullerenol [C],Kd,[11],750 µg/mL

# Source: patent US20030036562A1, “Water-soluble dendrimeric fullerene as anti-HIV therapeutic” (priority 2001, published 2003)
